Assay [1] concerns the target RAC-alpha serine/threonine-protein kinase (Homo sapiens) (UniProt P31749). The assay can be described thus: Inhibition of human AKT1 catalytic domain expressed in baculovirus assessed as substrate phosphorylation using fluorescence-labelled peptides as substrate at 420 uM after 90 mins by microfluidic peptide phosphorylation assay.
The target in assay [2] is T1, Serine/threonine-protein kinase D1 (Homo sapiens) (UniProt Q15139).
T1 sequence (whole entry): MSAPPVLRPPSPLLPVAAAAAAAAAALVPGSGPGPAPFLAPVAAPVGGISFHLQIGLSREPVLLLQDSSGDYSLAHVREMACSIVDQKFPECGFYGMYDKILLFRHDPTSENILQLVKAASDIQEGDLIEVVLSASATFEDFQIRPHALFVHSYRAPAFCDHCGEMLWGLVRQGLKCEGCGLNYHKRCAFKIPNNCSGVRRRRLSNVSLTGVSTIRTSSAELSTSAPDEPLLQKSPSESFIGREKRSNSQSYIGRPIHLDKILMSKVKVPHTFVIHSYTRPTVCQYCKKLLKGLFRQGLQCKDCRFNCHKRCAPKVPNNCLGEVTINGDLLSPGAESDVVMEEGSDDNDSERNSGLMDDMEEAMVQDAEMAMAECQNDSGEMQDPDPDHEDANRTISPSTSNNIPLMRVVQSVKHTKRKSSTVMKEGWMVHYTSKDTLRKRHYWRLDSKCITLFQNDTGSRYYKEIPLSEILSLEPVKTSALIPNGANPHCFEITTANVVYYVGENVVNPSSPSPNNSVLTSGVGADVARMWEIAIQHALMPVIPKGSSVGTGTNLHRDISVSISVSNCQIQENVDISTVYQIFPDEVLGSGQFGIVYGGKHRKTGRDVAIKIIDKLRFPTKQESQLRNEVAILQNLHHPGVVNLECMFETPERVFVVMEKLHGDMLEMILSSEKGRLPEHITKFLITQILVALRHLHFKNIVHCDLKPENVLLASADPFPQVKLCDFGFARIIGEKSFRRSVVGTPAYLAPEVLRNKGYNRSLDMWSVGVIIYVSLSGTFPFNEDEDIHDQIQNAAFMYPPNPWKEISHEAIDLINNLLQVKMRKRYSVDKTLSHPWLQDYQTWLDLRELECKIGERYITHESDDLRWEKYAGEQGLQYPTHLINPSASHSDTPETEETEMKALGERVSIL
The assay can be described thus: Inhibition of human full length PKD1 expressed in baculovirus assessed as substrate phosphorylation using fluorescence-labelled peptides as substrate at 0.1 uM after 90 mins by microfluidic peptide phosphorylation assay.

Assay [3] has as its target Tyrosine-protein kinase HCK (Homo sapiens) (UniProt P08631). The assay can be described thus: Inhibition of human HCK catalytic domain expressed in baculovirus assessed as substrate phosphorylation using fluorescence-labelled peptides as substrate at 0.2 uM after 90 mins by microfluidic peptide phosphorylation assay.
Assay [4] concerns Fibroblast growth factor receptor 2 (Homo sapiens), P21802 [N549H]. The assay can be described thus: Inhibition of human FGFR2 N549H mutant catalytic domain expressed in baculovirus assessed as substrate phosphorylation using fluorescence-labelled peptides as substrate at 9 uM after 90 mins by microfluidic peptide phosphorylation assay.
Chain of Fibroblast growth factor receptor 2 (Homo sapiens), P21802 [N549H] (P21802 whole entry N549H, the tested form may be a part, canonical isoform): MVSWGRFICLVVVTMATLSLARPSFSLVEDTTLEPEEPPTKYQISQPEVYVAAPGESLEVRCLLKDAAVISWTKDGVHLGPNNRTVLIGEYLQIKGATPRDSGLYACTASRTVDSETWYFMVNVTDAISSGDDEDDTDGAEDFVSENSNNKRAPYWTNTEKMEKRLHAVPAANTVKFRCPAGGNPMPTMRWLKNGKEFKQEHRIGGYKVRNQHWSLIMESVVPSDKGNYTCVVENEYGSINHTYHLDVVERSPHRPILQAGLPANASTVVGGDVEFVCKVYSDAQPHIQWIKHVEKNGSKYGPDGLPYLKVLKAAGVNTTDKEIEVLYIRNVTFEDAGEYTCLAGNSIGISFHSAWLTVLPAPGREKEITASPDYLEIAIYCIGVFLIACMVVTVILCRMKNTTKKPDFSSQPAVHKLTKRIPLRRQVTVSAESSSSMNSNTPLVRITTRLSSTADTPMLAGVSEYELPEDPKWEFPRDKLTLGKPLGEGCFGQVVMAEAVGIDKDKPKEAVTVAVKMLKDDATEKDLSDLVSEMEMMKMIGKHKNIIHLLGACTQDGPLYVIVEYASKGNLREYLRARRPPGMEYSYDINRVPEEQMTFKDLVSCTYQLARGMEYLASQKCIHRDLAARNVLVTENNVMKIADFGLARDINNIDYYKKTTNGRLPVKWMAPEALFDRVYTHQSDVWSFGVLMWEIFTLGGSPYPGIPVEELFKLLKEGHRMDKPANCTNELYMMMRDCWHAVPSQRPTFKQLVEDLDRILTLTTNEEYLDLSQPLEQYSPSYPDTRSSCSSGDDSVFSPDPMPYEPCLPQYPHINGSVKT
The target of assay [5] is Casein kinase I isoform delta (Homo sapiens) (UniProt P48730). The assay can be described thus: Inhibition of human CK1D catalytic domain expressed in Escherichia coli cell assessed as substrate phosphorylation using fluorescence-labelled peptides as substrate at 70 uM after 90 mins by microfluidic peptide phosphorylation assay.
Chain of Casein kinase I isoform delta (Homo sapiens) (P48730 whole entry, looked up, the tested form may be a part, canonical isoform): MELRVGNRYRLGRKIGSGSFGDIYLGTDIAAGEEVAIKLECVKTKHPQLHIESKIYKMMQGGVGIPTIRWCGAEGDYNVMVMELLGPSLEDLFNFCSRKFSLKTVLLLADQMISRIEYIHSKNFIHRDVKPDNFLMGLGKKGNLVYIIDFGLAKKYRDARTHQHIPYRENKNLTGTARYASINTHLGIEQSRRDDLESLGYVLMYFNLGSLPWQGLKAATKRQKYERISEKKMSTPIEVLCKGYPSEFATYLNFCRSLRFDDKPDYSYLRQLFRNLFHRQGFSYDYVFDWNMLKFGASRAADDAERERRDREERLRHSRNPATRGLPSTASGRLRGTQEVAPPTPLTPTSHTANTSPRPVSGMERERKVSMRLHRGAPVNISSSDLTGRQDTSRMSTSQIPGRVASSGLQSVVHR
The target of assay [6] is Receptor-type tyrosine-protein kinase FLT3 (Homo sapiens) (UniProt P36888). The assay can be described thus: Inhibition of human FLT3 catalytic domain expressed in baculovirus assessed as substrate phosphorylation using fluorescence-labelled peptides as substrate at 2 uM after 90 mins by microfluidic peptide phosphorylation assay.
Chain of Receptor-type tyrosine-protein kinase FLT3 (Homo sapiens) (P36888 whole entry, the tested form may be a part): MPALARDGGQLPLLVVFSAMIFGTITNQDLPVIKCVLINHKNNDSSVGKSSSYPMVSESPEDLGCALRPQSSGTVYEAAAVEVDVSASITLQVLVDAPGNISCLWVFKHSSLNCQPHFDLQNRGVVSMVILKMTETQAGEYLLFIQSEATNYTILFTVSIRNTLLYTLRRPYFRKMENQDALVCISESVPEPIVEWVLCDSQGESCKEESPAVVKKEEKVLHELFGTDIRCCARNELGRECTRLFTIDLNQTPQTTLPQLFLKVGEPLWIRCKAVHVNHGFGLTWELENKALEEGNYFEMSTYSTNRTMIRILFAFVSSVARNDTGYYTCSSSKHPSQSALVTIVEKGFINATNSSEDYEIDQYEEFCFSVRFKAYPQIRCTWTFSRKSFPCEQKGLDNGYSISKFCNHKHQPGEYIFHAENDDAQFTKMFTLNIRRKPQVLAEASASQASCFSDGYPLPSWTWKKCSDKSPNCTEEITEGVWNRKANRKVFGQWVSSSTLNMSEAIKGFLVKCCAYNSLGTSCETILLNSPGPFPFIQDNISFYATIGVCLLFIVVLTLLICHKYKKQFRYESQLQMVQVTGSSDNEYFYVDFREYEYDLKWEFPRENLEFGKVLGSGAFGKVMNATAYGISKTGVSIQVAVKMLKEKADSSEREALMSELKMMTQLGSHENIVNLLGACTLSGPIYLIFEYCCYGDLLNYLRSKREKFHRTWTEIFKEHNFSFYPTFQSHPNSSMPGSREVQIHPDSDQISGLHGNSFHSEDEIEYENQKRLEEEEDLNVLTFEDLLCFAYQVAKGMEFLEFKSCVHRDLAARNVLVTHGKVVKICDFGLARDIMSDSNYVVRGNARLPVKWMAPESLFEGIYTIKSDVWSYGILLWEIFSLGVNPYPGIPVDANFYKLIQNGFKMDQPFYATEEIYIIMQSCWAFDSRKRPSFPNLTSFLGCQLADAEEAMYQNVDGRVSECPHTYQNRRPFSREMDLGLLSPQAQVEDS
For assay [7], the target named is T2, Aurora kinase C (Homo sapiens) (UniProt Q9UQB9).
T2 sequence (whole entry): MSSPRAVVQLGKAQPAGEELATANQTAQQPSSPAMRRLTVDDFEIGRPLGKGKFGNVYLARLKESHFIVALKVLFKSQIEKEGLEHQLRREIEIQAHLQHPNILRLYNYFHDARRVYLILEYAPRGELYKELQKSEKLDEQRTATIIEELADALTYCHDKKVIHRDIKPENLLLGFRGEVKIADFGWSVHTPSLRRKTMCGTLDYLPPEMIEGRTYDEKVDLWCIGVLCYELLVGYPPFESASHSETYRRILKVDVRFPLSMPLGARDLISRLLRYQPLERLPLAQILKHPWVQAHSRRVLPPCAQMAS
The assay can be described thus: Inhibition of human full length AurC expressed in baculovirus assessed as substrate phosphorylation using fluorescence-labelled peptides as substrate at 95 uM after 90 mins by microfluidic peptide phosphorylation assay.

For assay [8], the target named is Mitogen-activated protein kinase 1 (Homo sapiens) (UniProt P28482). The assay can be described thus: Inhibition of human full length ERK2 expressed in Escherichia coli cell assessed as substrate phosphorylation using fluorescence-labelled peptides as substrate at 1000 uM after 90 mins by microfluidic peptide phosphorylation assay.
Chain of Mitogen-activated protein kinase 1 (Homo sapiens) (P28482 whole entry, the tested form may be a part): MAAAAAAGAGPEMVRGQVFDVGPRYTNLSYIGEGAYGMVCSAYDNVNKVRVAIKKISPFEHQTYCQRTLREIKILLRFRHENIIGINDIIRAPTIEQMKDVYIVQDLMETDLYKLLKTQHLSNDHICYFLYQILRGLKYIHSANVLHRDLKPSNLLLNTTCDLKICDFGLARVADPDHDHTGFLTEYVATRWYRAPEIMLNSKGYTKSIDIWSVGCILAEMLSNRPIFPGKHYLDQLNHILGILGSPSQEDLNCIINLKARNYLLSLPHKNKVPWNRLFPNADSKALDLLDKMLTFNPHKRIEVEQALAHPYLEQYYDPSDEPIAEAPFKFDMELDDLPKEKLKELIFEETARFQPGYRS
Assay [9] addresses Protein kinase C beta type (Homo sapiens) (UniProt P05771). The assay can be described thus: Inhibition of human truncated PKC beta1 expressed in baculovirus assessed as substrate phosphorylation using fluorescence-labelled peptides as substrate at […] after 90 mins by microfluidic peptide phosphorylation assay.

Chain of Tyrosine-protein kinase HCK (Homo sapiens) (P08631 2-526 limits assumed): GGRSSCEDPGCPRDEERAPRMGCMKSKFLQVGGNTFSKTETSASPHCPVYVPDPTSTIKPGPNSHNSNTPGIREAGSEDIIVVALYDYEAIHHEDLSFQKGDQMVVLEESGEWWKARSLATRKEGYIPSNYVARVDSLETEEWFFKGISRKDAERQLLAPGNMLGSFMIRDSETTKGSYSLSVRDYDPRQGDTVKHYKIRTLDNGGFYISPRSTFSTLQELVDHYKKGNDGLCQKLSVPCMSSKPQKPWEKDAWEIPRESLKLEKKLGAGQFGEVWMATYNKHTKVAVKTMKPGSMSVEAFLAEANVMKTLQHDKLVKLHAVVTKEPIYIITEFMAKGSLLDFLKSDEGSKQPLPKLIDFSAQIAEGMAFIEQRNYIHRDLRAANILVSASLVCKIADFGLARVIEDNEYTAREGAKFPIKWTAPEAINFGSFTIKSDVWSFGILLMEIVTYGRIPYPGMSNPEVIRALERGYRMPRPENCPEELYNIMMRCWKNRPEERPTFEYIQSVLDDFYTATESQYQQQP
Chain of RAC-alpha serine/threonine-protein kinase (Homo sapiens) (P31749 whole entry, the tested form may be a part): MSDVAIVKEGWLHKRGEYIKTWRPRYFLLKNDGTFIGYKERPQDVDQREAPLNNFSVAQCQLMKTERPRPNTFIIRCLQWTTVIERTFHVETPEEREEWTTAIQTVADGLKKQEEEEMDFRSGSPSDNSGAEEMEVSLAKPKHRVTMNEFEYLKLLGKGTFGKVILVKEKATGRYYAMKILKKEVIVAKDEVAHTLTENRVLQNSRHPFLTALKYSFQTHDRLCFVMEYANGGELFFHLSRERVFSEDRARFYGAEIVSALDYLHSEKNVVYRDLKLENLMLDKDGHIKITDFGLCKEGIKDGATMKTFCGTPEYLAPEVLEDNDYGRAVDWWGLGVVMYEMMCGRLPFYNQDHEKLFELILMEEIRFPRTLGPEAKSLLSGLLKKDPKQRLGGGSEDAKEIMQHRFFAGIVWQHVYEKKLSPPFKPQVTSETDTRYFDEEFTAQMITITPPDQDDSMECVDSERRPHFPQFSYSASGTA
Chain of Protein kinase C beta type (Homo sapiens) (P05771 2-671 limits assumed): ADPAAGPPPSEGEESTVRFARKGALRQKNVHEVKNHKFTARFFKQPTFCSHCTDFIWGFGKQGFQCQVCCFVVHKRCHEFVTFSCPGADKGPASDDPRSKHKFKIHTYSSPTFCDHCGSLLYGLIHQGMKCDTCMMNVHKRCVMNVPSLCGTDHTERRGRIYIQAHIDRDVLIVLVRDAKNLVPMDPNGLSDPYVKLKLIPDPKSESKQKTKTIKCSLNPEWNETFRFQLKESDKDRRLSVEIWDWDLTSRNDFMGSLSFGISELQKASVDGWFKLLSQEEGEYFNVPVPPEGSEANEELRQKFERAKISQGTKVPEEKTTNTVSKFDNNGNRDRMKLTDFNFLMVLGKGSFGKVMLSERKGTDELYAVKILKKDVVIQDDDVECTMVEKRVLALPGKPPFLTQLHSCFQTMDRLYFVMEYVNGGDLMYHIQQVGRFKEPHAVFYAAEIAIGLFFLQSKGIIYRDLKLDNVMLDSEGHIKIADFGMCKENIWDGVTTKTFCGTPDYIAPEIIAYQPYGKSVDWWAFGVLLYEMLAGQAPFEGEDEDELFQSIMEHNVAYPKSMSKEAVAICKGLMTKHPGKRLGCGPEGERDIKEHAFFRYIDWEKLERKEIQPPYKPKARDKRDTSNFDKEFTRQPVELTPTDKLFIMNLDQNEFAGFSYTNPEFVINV

`c1nc(N2CCOCC2)c2nc[nH]c2n1`: in [1], the inhibition came to 61.5%.
Regarding `C[C@H](CN(C)C)Oc1nc(Nc2cc3cccc(Cl)c3cn2)cnc1C#N`, the inhibition in assay [2] worked out at 5%.
`Clc1ccc(C2(c3ccc(-c4ncnc5[nH]cnc45)cc3)CCNCC2)cc1`: the inhibition in assay [3] is 35%.
For `NCC1CN(c2ncnc3[nH]c4cnccc4c23)CCO1` (centres undefined), the inhibition in assay [4] stood at 47.5%.
As for `CNCc1ccc(-c2ncnc3[nH]cnc23)cc1`, the inhibition in assay [5] is 46%.
In the case of `NC1CCN(c2ncnc3[nH]ccc23)CC1`, in [6], the inhibition was 0%.
`NCCc1ccc(-c2ncnc3[nH]cnc23)cc1`: in assay [7], the inhibition came out at 87.5%.
As for `c1cnc2[nH]ccc2c1`, in [8], the inhibition was 23.5%.
Regarding `COC(=O)c1cnc(Nc2cnc(C#N)cn2)cc1NCC1CCNCC1`, the inhibition in [9] came to 2%.

In general, inhibition refers to the drop in the measured response relative to a control, in per cent.

(Values after ChEMBL document CHEMBL3132769, “Fragment growing to retain or alter the selectivity of anchored kinase hinge-binding fragments” (Medchemcomm, 2014).)
